In paper PMC5023282, “A rapid fluorometric assay for the S-malonyltransacylase FabD and other sulfhydryl utilizing enzymes” (Journal of Biological Methods, 2016):

Target: T1, FabD (malonyl-coenzyme A transacylase; malonyl-CoA:ACP transacylase) (Escherichia coli, UniProt P0AAI9)
T1 construct: full ORF in pET28b (NcoI/EcoRI), one extra N-terminal glycine, no His tag; expressed in E. coli BL21* DE3
Assay: CPM fluorescence detection of CoA-SH after TCA precipitation of holo-ACP, initial rates
Format: biochemical
Conditions: holo-ACP 125 µM; 25 mM MOPS, 100 mM NaCl, 1 mg/ml BSA, pH 7.1, 30°C
Source text: CPM fluorescence detection of CoA-SH after TCA precipitation of holo-ACP, initial rates on FabD (malonyl-coenzyme A transacylase; malonyl-CoA:ACP transacylase)

T1 sequence (P0AAI9 2-309): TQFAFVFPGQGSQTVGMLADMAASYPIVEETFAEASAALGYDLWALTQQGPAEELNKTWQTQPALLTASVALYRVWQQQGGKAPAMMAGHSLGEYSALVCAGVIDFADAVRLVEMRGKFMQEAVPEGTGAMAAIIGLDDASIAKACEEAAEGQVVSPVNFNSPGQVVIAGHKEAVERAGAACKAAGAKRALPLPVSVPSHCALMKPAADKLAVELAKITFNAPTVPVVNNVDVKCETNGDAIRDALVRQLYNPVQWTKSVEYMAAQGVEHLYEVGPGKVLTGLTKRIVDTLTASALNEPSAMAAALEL

SMILES: CC(C)(COP(=O)(O)OP(=O)(O)OC[C@H]1O[C@@H](n2cnc3c(N)ncnc32)[C@H](O)[C@@H]1OP(=O)(O)O)[C@@H](O)C(=O)NCCC(=O)NCCSC(=O)CC(=O)O [malonyl-CoA]
- Km: 60 ± 20 µM
